# Key:
# [1] = Behaviour of modified rhodamine ligand at physiological pH; format: physicochemical
# From the text: Given these properties, the chemical structure of rhodamine B was modified by adding a “sticky tail” in order to coordinate the fluorescent molecule to the metal center. In a first attempt to synthesize a modified rhodamine bearing a coordinating group, carboxylate was amidated with aminopropionitrile, using the Adamczyk procedure (Adamczyk, M. J. Bioorg. Med. Chem. Lett. 2000, 10: 1539-1541). The obtained compound is RhodB-APN, indicated in scheme 1B. […] Rhodamine 6G can be modified similarly to the rhodamine B, described above.
# [2] = in aqueous solutions; cited from earlier work
# [3] = Flash photolysis, uncaging time; format: physicochemical; conditions: basic aqueous solution, 532 nm, 10 ns pulse
# Method: In order to estimate the uncaging time, a flash photolysis experiment was performed on a basic aqueous solution of [Ru(bpy)2(PMe3)Glu] using the second harmonic of a Nd-YAGlaser (532 nm, 10 ns pulse). The photocleavage occurs within the first 50 ns, being the fastest reported caged compound, to our knowledge. The fact that a tens of nanoseconds are required to complete the glutamate uncaging reaction is compatible with the observation that the excited state lifetime measured for a similar compound containing pyridine instead of glutamate is in the range of 10-100 ns.
# [4] = 1H-NMR in D2O, isotopic exchange / inertness; format: physicochemical; conditions: 2 months in D2O at room temperature
# From the text: The aliphatic region corresponding to the glutamate moiety is depicted in the upper trace of FIG. 18, where —NH2 protons appear at 4.50, 4.12, 4.00 and 3.57 ppm. […] This behavior differs from that of free glutamate which, under the same conditions, exchanges rapidly D+ for H+.
# [5] = tested on: living neocortical pyramidal neurons in mouse brain slices; assay: Biocompatibility test on brain slices (two-photon microscopy, whole-cell patch recordings); format: cell-based; conditions: 350 μM, 1 hour of incubation
# Method: Biocompatibility tests were performed to evaluate the potential toxicity of the complex. 350 μM [Ru(bpy)2(PMe3)Glu], a concentration used for two-photon uncaging experiments, was incubated with living neocortical pyramidal neurons in mouse brain slices, and carefully monitored the morphology and electrophysiological properties of the neurons using two-photon microscopy and whole-cell patch recordings.
# [6] = Photorelease of glutamate, UV-Vis during 450 nm LED irradiation; format: physicochemical
# Method: As the photoreaction proceeds, the generation of the aquo complex was recorded to reach completion in about 4 minutes. The presence of two isosbestic points as well as a factor analysis performed on the spectra indicate that just two colored species are present in the solution, according to what is expected in a single photoaquation process. The spectrum of the photoproduct was found identical to that of the complex [Ru(bpy)2(PMe3)(H2O)]2^+, which can be synthesized by refluxing the chloro complex in water. At pH=11 a similar behavior was observed, although in this case the product is the hydroxo complex [Ru(bpy)2(PMe3)(OH)]^+.
# The irradiance of the light source was calibrated using the known efficiency of the photolysis of [Ru(bpy)(Py)2]^2+. The amount of photoreleased glutamate was fitted using a two-parameter single-exponential function: y=a[1−exp(−bx)] and the quantum yield (φPC) was obtained as a•b, adopting a value of 0.13 at pH=7 and 0.10 at pH=11.
# [7] = Cyclic voltammetry, redox potential; format: physicochemical; conditions: acetonitrile, vs. NHE
# Method: UV-vis spectra in water were obtained with an HP 8453 diode array spectrophotometer. RMN ^1H spectra were obtained using a Bruker 500 MHz equipment. CV measurements were performed with a PAR 273A potentiostat. Irradiation was effected by means of a pulsed Xe lamp, (pulse energy ˜0.5 J), with a low-pass filter at 480 nm. Irradiation using a 473 nm DPSS laser gave similar results.
# (See, e.g., E. S. Dodsworth et al., 1986, Chem. Phys. Lett., 124:152-158). The photoactivity of these compounds has been explained in terms of a reaction pathway that involves the transition between the MLCT state to a lower-energy d-d state, which promotes ligand release. There is a direct correspondence between the energy of the MLCT transition and the quantum yield of the photoreaction. For [Ru(bpy)2(4AP)CH3CN]^2+, the photoreaction yield is about φPR=0.4. Since [Ru(bpy)2(4AP)2]Cl2 presents a red-shifted band, a lower photoreaction yield is expected. An estimate based on early experiments leads to an estimate of φPR≅0.02 at 473 nm.
# Its aqueous solutions present a strong metal to ligand charge-transfer band (MLCT band) at 450 nm, characteristic of this family of Ru polypyridines.
# Retzius cells = assay: Injection of caged fluorescent probe into living neurons; format: cell-based, Hirudo medicinalis; conditions: short-term (˜2 h) experiments
# Method: Microscopy of leech (Hirudo medicinalis) ganglia was performed in a custom-made setup for photoelectrophisiology equipped with a micromanipulator used to impale the neuron body with the ˜1 μm tip diameter capillaries, and a CCD webcam as a registering device. An isolated leech ganglion from a segment between 7 and 14 was pinned down in a sylgard-coated, 35 mm Petri dish. Retzius cells were identified by their position, size, and firing behavior. Intracellular recordings were obtained with ˜20 MΩ sharp capillary microelectrodes, a Neuroprobe 1600 (A-M Systems) amplifier and a A/D signal acquisition board at 1 kHz sampling rate and custom-made software. For iontophoretical injection of the dye the microelectrode was filled with recording solution to which 1 mM caged fluorescent dye (chloride form) was added. Square, biphasic pulses of 1 nA, 2 Hz were applied for less that 5 min.
# This example provides an activatable fluorescent probe with surprising sensitivity in the visible light region. It increases its intrinsic fluorescence up to 6-fold after blue light irradiation. […] The probe was used to image the laminar flow inside a thin spectrophotometric flow cell and to visualize the parabolic-shaped flow in a FIA capillary.
# [8] = Fluorescence emission quantum yield before and after irradiation; format: physicochemical; conditions: after blue light (473 nm) irradiation
# From the text: All reagents were purchased from Sigma-Aldrich and used as received. Ru(bpy)2Cl2 was synthesized according to the literature using water as solvent (Viala, C.; Coudret, C. Inorg. Chim. Acta 2006, 359: 984-989). UV-vis spectra were taken with a HP8453 diode-array spectrometer. NMR spectra were obtained using a 500 MHz Bruker AM-500. Fluorescence emission measurements were made with a PTI Quantamaster spectrofluorometer, corrected for the instruments response function. Rhodamine B was used as fluorescence standard of emission quantum yield (φ=0.31 in aqueous solutions). Quantum yield of the complex was obtained directly from the ratio of the spectral areas, which present the same shape.
# FIG. 20 depicts the emission spectra of the complex during irradiation. The maximum and the shape of the initial emission spectrum is the same as that of the free ligand RhodB-MAPN but the emission quantum yield is much lower, around pt=0.04. Quantum yields are easily calculated integrating the spectral areas. After irradiation with a 473 nm laser, RhodB-MAPN is released and the solution increases its fluorescence up to 6 fold, to φt=0.24.
smiles,measurement,setting,value
CCN(CC)c1ccc2c(-c3ccccc3C(=O)NCCC#N)c3ccc(=[N+](CC)CC)cc-3oc2c1 [RhodB-APN],stability of fluorescent form,[1],undergoes isomerization to the cyclic spirolactame form
CCN(CC)c1ccc2c(-c3ccccc3C(=O)O)c3ccc(=[N+](CC)CC)cc-3oc2c1.[Cl-] [Rhodamine B],emission quantum yield (fluorescence standard),[2],0.31
CP(C)C.F[P-](F)(F)(F)(F)F.F[P-](F)(F)(F)(F)F.NC(CCC(=O)O)C(=O)O.[Ru+2].c1ccc(-c2ccccn2)nc1.c1ccc(-c2ccccn2)nc1 [[Ru(bpy)2(PMe3)GlutH2](PF6)2],photocleavage time,[3],≤ 50 ns
same,isotopic exchange of coordinated -NH2 (inertness),[4],no exchange is seen
same,effects on morphology and electrophysiological properties of neurons,[5],no detectable effects were observed
same,quantum yield (φPC) of glutamate photorelease,[6]; pH=7,0.13
same,time for photoreaction to reach completion,"[6]; pH=7, 450±20 nm LED",about 4 minutes
same,quantum yield (φPC) of glutamate photorelease,[6]; pH=11,0.10
same,"redox process, Ru(III)/Ru(II) couple of the original complex",[7],0.98 V
CCN(CC)c1ccc2c(-c3ccccc3C(=O)N(C)CCC#N)c3ccc(=[N+](CC)CC)cc-3oc2c1.[Cl-].[Cl][Ru+].c1ccc(-c2ccccn2)nc1.c1ccc(-c2ccccn2)nc1 [[Ru(bpy)2(RhodB-MAPN)Cl]Cl],acute toxicity in injected living cells,Retzius cells,no sign of acute toxicity
same,increase of fluorescence,[8],up to 6 fold

# Source: US9744236B2, “Photolabile compounds” (The Trustees of Columbia University in the City of New York, priority 2009, dated 2017)
